Test results published in patent US5770083A, “Separation of polar compounds by affinity countercurrent chromatography” (The United States of America as represented by the …, priority 1995, dated 1998).
Like-named read-outs stand apart in the source and are kept apart here.

Columns and labels:
[1] = Partition coefficient (K) in two-phase solvent systems, test tube procedure; format: physicochemical
Protocol: Each solvent system was prepared by equilibrating the solvent mixture, excluding the ligand, in a separatory funnel at room temperature. After two clear layers were formed, the two phases were separated. Then, a desired amount of the ligand was added to the organic phase which was then used as the stationary phase. The aqueous phase was used as the mobile phase.
Partition coefficients were measured using the standard test tube procedure as follows: The two-phase solvent system was prepared as described above. An aliquot of 2 mL of each phase, a total of 4 mL, was delivered in a test tube (13 mm ID×100 mm length) where a desired amount of the ligand and 1-2 mg of sample were added. Then, the test tube was stoppered and the contents were mixed until the resolved sample was completely equilibrated between two phases. Using a vortex mixer, it required 10 successive applications at a few second intervals after the sample was dissolved in the solvent. The tube was stand still until clear two layers were formed. If necessary, the tubes were centrifuged for 2-3 min at 1000×g to accelerate the phase separation. An aliquot of each phase, usually 100 μl, was separately diluted with 2 mL of a suitable diluent, usually methanol, and the absorbance determined with a spectrophotometer, (Zeiss, Hanover, Md., USA) at a desired wavelength. The partition coefficient for each component was obtained by the absorbance of the upper phase divided by that of the lower phase. […]

[2] = n-butanol/water two-phase solvent systems, no ligand; stated as background; cited from earlier work
[3] = methyl t-butyl ether / 0.1 M KH2PO4 (1:1), ligand DEHPA 10%, upper/lower phase

Tyr--Gly
Partition Coefficient (K) [1, 3]: 0.2

Leu--Tyr
Partition Coefficient (K) [1, 3]: 10

Val--Tyr
Partition Coefficient (K) [1, 3]: 2.8

CNC[C@H](O)c1ccc(O)c(O)c1 [Epinephrine, epinephrine]
Partition Coefficient (K) ([1]; methyl t-butyl ether / 0.1 M NH4OAc and 0.5 M HCl (1:1), ligand DEHPA 1.5%, upper/lower phase): 0.4 | Partition Coefficient ([1]; solvent system I: nButanol/H2O): 0.24 | Partition Coefficient ([1]; solvent system II: nButanol/0.1M NH4OAc): 0.13 | Partition Coefficient ([1]; solvent system III: MBE/H2O): 0.06 | Partition Coefficient ([1]; solvent system IV: MBE/0.1M NH4OAc): 0.16 | Partition Coefficient ([1]; solvent system V: MBE/DEHPA/0.1M NH4OAc (9:1:10)): 5.83 | Partition Coefficient ([1]; solvent system VI: MBE/DEHPA/0.05M HCl (9:1:10)): 0.01 | Partition Coefficient ([1]; solvent system VII: MBE/DEHPA/0.1M NH4OAc & 0.05M HCl (9:1:10)): 1.42 | partition (in words) [2]: almost exclusively into the aqueous phase

N[C@@H](Cc1ccc(O)c(O)c1)C(=O)O (racemic) [DOPA, 3,4-dihydroxyphenylalanine]
Partition Coefficient (K) [1]: 0.01 | K value (in words) ([1]; Dopa in zwitterionic form, pH-zone-refining run, Example 5): extremely low K value

NCCc1ccc(O)cc1 [Tyramine, tyramine]
Partition Coefficient (K) [1]: 1.7

CCCCC(CC)COP(=O)(O)OCC(CC)CCCC (stereo not shown) [DEHPA, di-(2-ethylhexyl)phosphoric acid]
K value of the ligand ([1]; ligand almost unilaterally distributed into the organic phase, MBE/aqueous systems): > 100

Ala--Tyr
Partition Coefficient (K) [1, 3]: 0.5

Tyr--Val
Partition Coefficient (K) [1, 3]: 4.9

Gly--Tyr
Partition Coefficient (K) [1, 3]: 0.1

Tyr--Ala
Partition Coefficient (K) [1, 3]: 0.8

COc1cc(C(O)CN)ccc1O (stereo not shown) [Normetanephrine, normetanephrine]
Partition Coefficient (K) [1]: 0.5

Tyr--Leu
Partition Coefficient (K) [1, 3]: 18
